Test results reported in patent US12281149B2, “Modulators of G-protein coupled receptors” (priority 2021, dated 2025).
Where two headings read alike, the source gives them in different places. *1 amine or outer side, *2 acyl side, *3 side chain or, on linkers, in order; H or OH if unused. Where a SMILES comes first, the peptide text is derived from it. Side-chain parts run from the residue outwards. [ ]: non-standard residue; d: D form. The star is where a group is joined. Isobutyryl(2-(3-CN-5-F-Ph)) = CC(C)(C(=O)*)c1cc(F)cc(C#N)c1; C20 diacid = O=C(O)CCCCCCCCCCCCCCCCCCC(=O)*; X73 = CC(C)(C(=S)NCCC(=O)*)c1ccc(F)c(F)c1; γGlu = O=C(O)[C@H](CCC(=O)[*:2])N[*:1]; 2Thenoyl(5-Cl) = O=C(c1ccc(Cl)s1)*; NH(3-MeOPh) = COc1cccc(N*)c1; Ac4c = NC1(C(=O)O)CCC1; X10 = Clc1cccc(N*)c1Cl; AEEA = NCCOCCOCC(=O)O; Aib = CC(C)(N)C(=O)O; CO = O=C([*:1])[*:2]; GABA = NCCCC(=O)O; βAla = NCCC(=O)O

How the values were obtained:
Type in all cases: cell-based
[1] = molecular target: T1, GLP-1 receptor (Homo sapiens, UniProt P43220); assay: HitHunter cAMP assay, GLP-1 receptor; details: for EC50: CHO cells stably expressing human GLP-1 receptor, cAMP accumulation, 30 min, read-out: EC50 GLP-1R; for Emax: read-out: Emax GLP-1R
[2] = molecular target: T2, GIP receptor (Homo sapiens, UniProt P48546); assay: HitHunter cAMP assay, GIP receptor; details: for EC50: CHO cells stably expressing GIP receptor, cAMP accumulation, 30 min, read-out: EC50 GIP-1R; for Emax: read-out: Emax GIP-1R
T2 sequence (P48546 22-466): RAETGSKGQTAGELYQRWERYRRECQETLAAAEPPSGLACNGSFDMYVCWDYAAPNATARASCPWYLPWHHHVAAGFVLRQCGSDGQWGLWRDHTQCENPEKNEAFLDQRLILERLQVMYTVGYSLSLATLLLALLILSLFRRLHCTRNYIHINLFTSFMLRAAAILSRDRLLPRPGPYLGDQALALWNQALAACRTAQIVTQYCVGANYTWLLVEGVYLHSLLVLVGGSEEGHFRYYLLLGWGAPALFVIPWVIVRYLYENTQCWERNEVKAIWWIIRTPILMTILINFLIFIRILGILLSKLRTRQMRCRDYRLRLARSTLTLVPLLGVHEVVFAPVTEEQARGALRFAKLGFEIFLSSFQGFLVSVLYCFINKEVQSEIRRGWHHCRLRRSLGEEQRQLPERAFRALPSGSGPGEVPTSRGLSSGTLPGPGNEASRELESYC

[3] = molecular target: T2, GIP receptor; assay: PathHunter β-arrestin assay, GIP receptor; design: host or cells: PathHunter CHO-K1 GIPR β-Arrestin Cell Line; details: β-arrestin-2 recruitment, PathHunter CHO-K1 GIPR β-Arrestin Cell Line, 90 min at 37° C.; normalized to GIP; read-out: GIPR β Arrestin EC50
[4] = molecular target: T1, GLP-1 receptor; assay: PathHunter β-arrestin assay, GLP-1 receptor; design: host or cells: PathHunter CHO-K1 GLP1R β-Arrestin Cell Line; details: β-arrestin-2 recruitment, PathHunter CHO-K1 GLP1R β-Arrestin Cell Line, 90 min at 37° C.; normalized to GLP-1; read-out: GLP-1R β Arrestin EC50
[5] = CHO cells, cAMP, normalized to maximum signal from GLP-1 (high) and DMSO (low)
[6] = CHO cells, cAMP, normalized to maximum signal from GIP (high) and DMSO (low)

T1 sequence (P43220 24-463): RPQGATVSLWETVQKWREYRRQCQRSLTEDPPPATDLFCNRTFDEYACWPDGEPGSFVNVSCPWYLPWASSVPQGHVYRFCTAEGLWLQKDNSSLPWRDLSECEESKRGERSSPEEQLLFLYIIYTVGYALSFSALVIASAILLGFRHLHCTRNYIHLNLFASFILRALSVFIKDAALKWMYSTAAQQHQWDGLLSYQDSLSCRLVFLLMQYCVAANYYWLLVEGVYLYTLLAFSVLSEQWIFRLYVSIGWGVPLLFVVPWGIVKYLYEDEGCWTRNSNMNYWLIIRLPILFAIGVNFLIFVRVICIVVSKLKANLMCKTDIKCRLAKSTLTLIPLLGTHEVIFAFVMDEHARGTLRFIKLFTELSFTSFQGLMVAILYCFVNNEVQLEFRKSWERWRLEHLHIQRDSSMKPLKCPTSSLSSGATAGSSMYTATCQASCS

In the case of `CC[C@H](C)[C@H](NC(=O)[C@H](CC(C)C)NC(=O)[C@H](Cc1c[nH]c2ccccc12)NC(=O)[C@H](CCC(N)=O)NC(=O)[C@@H](NC(=O)[C@H](Cc1ccccc1)NC(=O)[C@H](C)NC(=O)[C@H](CCCCNC(=O)COCCOCCNC(=O)COCCOCCNC(=O)CC[C@H](NC(=O)CCCCCCCCCCCCCCCCCCC(=O)O)C(=O)O)NC(=O)[C@H](CCC(N)=O)NC(=O)[C@H](C)NC(=O)[C@@H](NC(=O)[C@H](CCCCN)NC(=O)[C@H](CC(=O)O)NC(=O)[C@H](CC(C)C)NC(=O)C(C)(C)NC(=O)[C@@H](NC(=O)[C@H](CO)NC(=O)[C@H](Cc1ccc(O)cc1)NC(=O)[C@H](CC(=O)O)NC(=O)[C@H](CO)NC(=O)[C@@H](NC(=O)[C@H](Cc1ccccc1)NC(=O)[C@@H](NC(=O)CNC(=O)[C@H](CCC(=O)O)NC(=O)CCNC(=S)C(C)(C)c1ccc(F)c(F)c1)[C@@H](C)O)[C@@H](C)O)[C@@H](C)CC)[C@@H](C)CC)C(C)C)C(=O)N[C@@H](C)C(=O)NCC(=O)NCC(=O)N1CCC[C@H]1C(=O)N[C@@H](CO)C(=O)N[C@@H](CO)C(=O)NCC(=O)N[C@@H](C)C(=O)N1CCC[C@H]1C(=O)N1CCC[C@H]1C(=O)N1CCC[C@H]1C(=O)N[C@@H](CO)C(N)=O` [Compound 137] (X73-EGTFTSDYSI[Aib]LDKIAQK([AEEA-AEEA-γGlu-C20 diacid])AFVQWLIAGGPSSGAPPPS-NH2), the EC50 [1] is reported as 0.1 to 1 nM, the Emax [1, 5] is reported as 99% and the EC50 [2] is reported as 10 to 100 nM. For the same molecule, the Emax [2, 6] was 87%, the EC50 [3] was over 1000 nM and the EC50 [4] was over 1000 nM.

Work on `CC[C@H](C)[C@H](NC(=O)[C@H](CC(C)C)NC(=O)[C@H](Cc1c[nH]c2ccccc12)NC(=O)[C@H](CCC(N)=O)NC(=O)[C@@H](NC(=O)[C@H](Cc1ccccc1)NC(=O)[C@H](C)NC(=O)[C@H](CCCCNC(=O)COCCOCCNC(=O)COCCOCCNC(=O)CC[C@H](NC(=O)CCCCCCCCCCCCCCCCCCC(=O)O)C(=O)O)NC(=O)[C@H](CCC(N)=O)NC(=O)[C@H](C)NC(=O)[C@@H](NC(=O)[C@H](CCCNC(=N)N)NC(=O)[C@H](CC(=O)O)NC(=O)[C@H](CC(C)C)NC(=O)C(C)(C)NC(=O)[C@@H](NC(=O)[C@H](CO)NC(=O)[C@H](Cc1ccc(O)cc1)NC(=O)[C@H](CC(=O)O)NC(=O)[C@H](CO)NC(=O)[C@@H](NC(=O)[C@H](Cc1ccccc1)NC(=O)[C@@H](NC(=O)CNC(=O)[C@H](CCC(=O)O)NC(=O)CCNC(=O)C(C)(C)c1cc(F)cc(C#N)c1)[C@@H](C)O)[C@@H](C)O)[C@@H](C)CC)[C@@H](C)CC)C(C)C)C(=O)N[C@@H](C)C(=O)NCC(=O)NCC(=O)N1CCC[C@H]1C(=O)N[C@@H](CO)C(=O)N[C@@H](CO)C(=O)NCC(=O)N[C@@H](C)C(=O)N1CCC[C@H]1C(=O)N1CCC[C@H]1C(=O)N1CCC[C@H]1C(=O)N[C@@H](CO)C(N)=O` [Compound 242] ({Isobutyryl(2-(3-CN-5-F-Ph))-βAla}-EGTFTSDYSI[Aib]LDRIAQK([AEEA-AEEA-γGlu-C20 diacid])AFVQWLIAGGPSSGAPPPS-NH2) yielded an EC50 [1] of 0.1 to 1 nM, an Emax [1, 5] of 99% and an EC50 [2] of 10 to 100 nM. It also gave an Emax [2, 6] of 115% and an EC50 [4] of over 1000 nM.

Work on `CC[C@H](C)[C@H](NC(=O)[C@H](CC(C)C)NC(=O)[C@H](Cc1c[nH]c2ccccc12)NC(=O)[C@H](CCC(N)=O)NC(=O)[C@@H](NC(=O)[C@H](Cc1ccccc1)NC(=O)[C@H](C)NC(=O)[C@H](CCCCNC(=O)COCCOCCNC(=O)COCCOCCNC(=O)CC[C@H](NC(=O)CCCCCCCCCCCCCCCCCCC(=O)O)C(=O)O)NC(=O)[C@H](CCC(N)=O)NC(=O)[C@H](C)NC(=O)[C@@H](NC(=O)[C@H](CCCCN)NC(=O)[C@H](CC(=O)O)NC(=O)[C@H](CC(C)C)NC(=O)C(C)(C)NC(=O)[C@@H](NC(=O)[C@H](CO)NC(=O)[C@H](Cc1ccc(O)cc1)NC(=O)[C@H](CC(=O)O)NC(=O)[C@H](CO)NC(=O)[C@@H](NC(=O)[C@H](Cc1ccccc1)NC(=O)[C@@H](NC(=O)CNC(=O)[C@H](CCC(=O)O)NC(=O)CCCNC(=O)C1(NC(=O)c2ccc(Cl)s2)CCC1)[C@@H](C)O)[C@@H](C)O)[C@@H](C)CC)[C@@H](C)CC)C(C)C)C(=O)N[C@@H](C)C(=O)NCC(=O)NCC(=O)N1CCC[C@H]1C(=O)N[C@@H](CO)C(=O)N[C@@H](CO)C(=O)NCC(=O)N[C@@H](C)C(=O)N1CCC[C@H]1C(=O)N1CCC[C@H]1C(=O)N1CCC[C@H]1C(=O)N[C@@H](CO)C(N)=O` [Compound 244] ({2Thenoyl(5-Cl)}-[Ac4c][GABA]EGTFTSDYSI[Aib]LDKIAQK([AEEA-AEEA-γGlu-C20 diacid])AFVQWLIAGGPSSGAPPPS-NH2; C-terminus assumed) yielded an Emax [1, 5] of 109% and an Emax [2, 6] of 120%.

With `CC[C@H](C)[C@H](NC(=O)[C@H](CC(C)C)NC(=O)[C@H](Cc1c[nH]c2ccccc12)NC(=O)[C@H](CCC(N)=O)NC(=O)[C@@H](NC(=O)[C@H](Cc1ccccc1)NC(=O)[C@H](C)NC(=O)[C@H](CCCCNC(=O)COCCOCCNC(=O)COCCOCCNC(=O)CC[C@H](NC(=O)CCCCCCCCCCCCCCCCCCC(=O)O)C(=O)O)NC(=O)[C@H](CCC(N)=O)NC(=O)[C@H](C)NC(=O)[C@@H](NC(=O)[C@H](CCCCN)NC(=O)[C@H](CC(=O)O)NC(=O)[C@H](CC(C)C)NC(=O)C(C)(C)NC(=O)[C@@H](NC(=O)[C@H](CO)NC(=O)[C@H](Cc1ccc(O)cc1)NC(=O)[C@H](CC(=O)O)NC(=O)[C@H](CO)NC(=O)[C@@H](NC(=O)[C@H](Cc1ccccc1)NC(=O)[C@@H](NC(=O)CNC(=O)[C@H](CCC(=O)O)NC(=O)CCCNC(=O)CNC(=O)Nc1cccc(OC)c1)[C@@H](C)O)[C@@H](C)O)[C@@H](C)CC)[C@@H](C)CC)C(C)C)C(=O)N[C@@H](C)C(=O)NCC(=O)NCC(=O)N1CCC[C@H]1C(=O)N[C@@H](CO)C(=O)N[C@@H](CO)C(=O)NCC(=O)N[C@@H](C)C(=O)N1CCC[C@H]1C(=O)N1CCC[C@H]1C(=O)N1CCC[C@H]1C(=O)N[C@@H](CO)C(N)=O` [Compound 261] ({NH(3-MeOPh)-CO}-G[GABA]EGTFTSDYSI[Aib]LDKIAQK([AEEA-AEEA-γGlu-C20 diacid])AFVQWLIAGGPSSGAPPPS-NH2; C-terminus assumed) the Emax [1, 5] was 106% and the Emax [2, 6] was 107%.

For `CC[C@H](C)[C@H](NC(=O)[C@H](CC(C)C)NC(=O)[C@H](Cc1c[nH]c2ccccc12)NC(=O)[C@H](CCC(N)=O)NC(=O)[C@@H](NC(=O)[C@H](Cc1ccccc1)NC(=O)[C@H](C)NC(=O)[C@H](CCCCNC(=O)COCCOCCNC(=O)COCCOCCNC(=O)CC[C@H](NC(=O)CCCCCCCCCCCCCCCCCCC(=O)O)C(=O)O)NC(=O)[C@H](CCC(N)=O)NC(=O)[C@H](C)NC(=O)[C@@H](NC(=O)[C@H](CCCCN)NC(=O)[C@H](CC(=O)O)NC(=O)[C@H](CC(C)C)NC(=O)C(C)(C)NC(=O)[C@@H](NC(=O)[C@H](CO)NC(=O)[C@H](Cc1ccc(O)cc1)NC(=O)[C@H](CC(=O)O)NC(=O)[C@H](CO)NC(=O)[C@@H](NC(=O)[C@H](Cc1ccccc1)NC(=O)[C@@H](NC(=O)CNC(=O)[C@H](CCC(=O)O)NC(=O)CCCNC(=O)CNC(=O)Nc1cccc(Cl)c1Cl)[C@@H](C)O)[C@@H](C)O)[C@@H](C)CC)[C@@H](C)CC)C(C)C)C(=O)N[C@@H](C)C(=O)NCC(=O)NCC(=O)N1CCC[C@H]1C(=O)N[C@@H](CO)C(=O)N[C@@H](CO)C(=O)NCC(=O)N[C@@H](C)C(=O)N1CCC[C@H]1C(=O)N1CCC[C@H]1C(=O)N1CCC[C@H]1C(=O)N[C@@H](CO)C(N)=O` [Compound 262] ({X10-CO}-G[GABA]EGTFTSDYSI[Aib]LDKIAQK([AEEA-AEEA-γGlu-C20 diacid])AFVQWLIAGGPSSGAPPPS-NH2; C-terminus assumed), the Emax ([1]; CHO) was 90% and the Emax ([2]; CHO) was 106%.
